From ChEMBL document CHEMBL2086309, “Discovery of liver selective non-steroidal glucocorticoid receptor antagonist as novel antidiabetic agents” (Bioorg Med Chem Lett, 2012) come the findings set out here.

Some results are limits rather than exact numbers.

In test [1] the target is T1, Glucocorticoid receptor (Homo sapiens, UniProt P04150).
T1 sequence (P04150 whole entry): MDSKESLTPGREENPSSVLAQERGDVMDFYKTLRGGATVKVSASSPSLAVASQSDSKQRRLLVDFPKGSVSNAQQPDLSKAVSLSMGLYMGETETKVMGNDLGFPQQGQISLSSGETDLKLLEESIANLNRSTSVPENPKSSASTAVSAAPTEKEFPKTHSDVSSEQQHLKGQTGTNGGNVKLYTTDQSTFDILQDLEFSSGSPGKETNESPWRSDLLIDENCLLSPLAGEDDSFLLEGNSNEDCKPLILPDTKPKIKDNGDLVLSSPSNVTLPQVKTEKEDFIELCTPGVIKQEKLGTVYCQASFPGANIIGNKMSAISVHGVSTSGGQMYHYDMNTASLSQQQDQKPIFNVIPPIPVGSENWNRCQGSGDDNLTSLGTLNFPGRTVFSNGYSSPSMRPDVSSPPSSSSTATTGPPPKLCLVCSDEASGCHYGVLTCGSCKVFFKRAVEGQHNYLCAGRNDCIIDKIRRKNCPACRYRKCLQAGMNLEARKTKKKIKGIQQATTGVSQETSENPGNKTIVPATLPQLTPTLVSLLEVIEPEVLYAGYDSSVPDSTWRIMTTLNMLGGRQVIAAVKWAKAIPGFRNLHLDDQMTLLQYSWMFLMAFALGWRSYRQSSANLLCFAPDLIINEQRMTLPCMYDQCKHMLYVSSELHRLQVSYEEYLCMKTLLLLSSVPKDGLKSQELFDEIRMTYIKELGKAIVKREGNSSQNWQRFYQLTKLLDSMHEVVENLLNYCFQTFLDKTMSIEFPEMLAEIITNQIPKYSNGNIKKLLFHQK
In words: Antagonist activity at human glucocorticoid receptor expressed in GRAF cells assessed as inhibition of dexamethasone-induced alkaline phosphatase expression after 48 hrs by reporter gene assay. The format is functional, cell-based.

In test [2] the target is T1, Glucocorticoid receptor. In words: Displacement of [3H]dexamethasone from human glucocorticoid receptor expressed in baculovirus infected Sf9 cells after overnight incubation by scintillation counting.
The target of test [3] is T2, Glucocorticoid receptor (Rattus norvegicus, UniProt P06536).
T2 sequence (P06536 whole entry): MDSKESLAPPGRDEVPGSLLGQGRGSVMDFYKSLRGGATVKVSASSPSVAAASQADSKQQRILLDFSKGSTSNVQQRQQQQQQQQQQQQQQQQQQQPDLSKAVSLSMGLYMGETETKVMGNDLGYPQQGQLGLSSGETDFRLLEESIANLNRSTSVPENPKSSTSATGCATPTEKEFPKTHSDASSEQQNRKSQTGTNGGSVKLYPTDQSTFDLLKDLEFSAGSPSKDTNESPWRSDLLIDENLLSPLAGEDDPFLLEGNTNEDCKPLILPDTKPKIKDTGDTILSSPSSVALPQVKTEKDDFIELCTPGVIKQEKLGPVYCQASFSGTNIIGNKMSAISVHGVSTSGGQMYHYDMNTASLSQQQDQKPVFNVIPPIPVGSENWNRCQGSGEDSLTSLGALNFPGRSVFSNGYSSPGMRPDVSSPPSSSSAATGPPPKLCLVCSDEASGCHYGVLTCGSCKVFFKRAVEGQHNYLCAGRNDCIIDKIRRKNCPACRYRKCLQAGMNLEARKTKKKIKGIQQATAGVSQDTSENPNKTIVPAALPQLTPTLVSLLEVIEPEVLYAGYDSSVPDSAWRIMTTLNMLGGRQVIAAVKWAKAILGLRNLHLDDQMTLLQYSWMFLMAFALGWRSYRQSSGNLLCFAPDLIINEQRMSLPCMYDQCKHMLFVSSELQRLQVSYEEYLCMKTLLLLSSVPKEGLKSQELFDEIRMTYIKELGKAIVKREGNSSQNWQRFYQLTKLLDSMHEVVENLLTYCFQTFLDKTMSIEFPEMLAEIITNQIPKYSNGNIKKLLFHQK
In words: Antagonist activity at glucocorticoid receptor in rat hepatocytes assessed as inhibition of dexamethasone-induced […] expression incubated for 30 mins prior to dexamethasone-induction measured after 4 hrs by reporter gene assay. The format is functional, cell-based, Hepatocyte.

Test [4] deals with T1, Glucocorticoid receptor. In words: Displacement of [3H]dexamethasone from human glucocorticoid receptor expressed in baculovirus infected Sf9 cells after 16-18 hrs by beta counting.
Test [5] concerns the target T1, Glucocorticoid receptor. In words: Antagonist activity at human glucocorticoid receptor expressed in CHOK1 cells assessed as inhibition of dexamethasone-induced alkaline phosphatase expression after 46 hrs by reporter gene assay. The format is functional, cell-based, CHO-K1.
The target in test [6] is T2, Glucocorticoid receptor. In words: Antagonist activity at glucocorticoid receptor in rat H4IIE cells assessed as inhibition of dexamethasone-induced […] expression after 24 hrs by reporter gene assay. The format is functional, cell-based.

On to `O=C(O)Cc1cc(Br)c(N(Cc2ccc(Oc3ccc(Br)cc3Br)cc2)Cc2cc(F)cc(F)c2)c(Br)c1`, for which the IC50 on Glucocorticoid receptor [1] was 1420 nM; at Glucocorticoid receptor [2], 879 nM; on Glucocorticoid receptor [3] it was over 10000 nM.

`O=C(O)c1ccc(N(Cc2ccccc2)Cc2ccc(Oc3ccccc3)cc2)cc1` had an IC50 at Glucocorticoid receptor [2] of over 9000 nM.

Turning to `O=C(O)Cc1cc(Br)c(N(Cc2ccc(Oc3ccccc3C(F)(F)F)cc2)Cc2cc(F)cc(F)c2)c(Br)c1`, the IC50 at Glucocorticoid receptor [1] was determined as 598 nM; on Glucocorticoid receptor [2] it was 298 nM; at Glucocorticoid receptor [3], 3300 nM.

With `COc1cc(C(=O)c2cccc(C)c2)c(Oc2c(Br)cc(CC(=O)O)cc2Br)cc1C(C)C`, the IC50 on Glucocorticoid receptor [1] was determined as 410 nM; at Glucocorticoid receptor [4] it was 19 nM; at Glucocorticoid receptor [2] it was 20 nM; on Glucocorticoid receptor [3], 2490 nM; on Glucocorticoid receptor [5], 400 nM; on Glucocorticoid receptor [6] it was 2500 nM.

On to `Cc1ccc(Oc2ccc(CN(Cc3cc(F)cc(F)c3)c3c(Br)cc(CC(=O)O)cc3Br)cc2)c(C)c1`, for which the IC50 on Glucocorticoid receptor [2] was 1640 nM.

With `COc1ccc(Oc2ccc(CN(Cc3cc(F)cc(F)c3)c3c(Br)cc(CC(=O)O)cc3Br)cc2)c(OC)c1`, the half-inhibitory concentration (IC50) at Glucocorticoid receptor [2] was 1600 nM.

With `O=C(O)Cc1cc(Br)c(N(Cc2ccc(Oc3ccc(C(F)(F)F)cc3C(F)(F)F)cc2)Cc2cc(F)cc(F)c2)c(Br)c1`, the figures for the IC50 at Glucocorticoid receptor [1], at Glucocorticoid receptor [2] and at Glucocorticoid receptor [3] were 421 nM, 111 nM and 2900 nM, respectively.

Take `O=C(O)Cc1cc(Br)c(N(Cc2ccc(Oc3ccccc3Br)cc2)Cc2cc(F)cc(F)c2)c(Br)c1`: the figures for the IC50 on Glucocorticoid receptor [1], at Glucocorticoid receptor [2] and at Glucocorticoid receptor [3] were 1170 nM, 801 nM and over 10000 nM, respectively.

On Glucocorticoid receptor [2], `c1ccc(CN(Cc2ccc(Oc3ccccc3)cc2)c2ccccc2)cc1` came in with an IC50 of over 10000 nM.

`O=C(O)Cc1ccc(N(Cc2ccccc2)Cc2ccc(Oc3ccccc3)cc2)cc1` returned an IC50 on Glucocorticoid receptor [2] of 1910 nM.

`O=C(O)Cc1cc(Br)c(N(Cc2ccc(Oc3ccccc3)cc2)Cc2cc(F)cc(F)c2)c(Br)c1`: the IC50 stood at 1050 nM at Glucocorticoid receptor [1], 722 nM on Glucocorticoid receptor [2] and 3900 nM at Glucocorticoid receptor [3].

Turning to `Cc1c(NS(C)(=O)=O)cccc1N(Cc1ccc(Oc2ccc(F)c(OCC(=O)O)c2)cc1)Cc1cc(F)cc(F)c1`, the IC50 on Glucocorticoid receptor [1] worked out at 432 nM; at Glucocorticoid receptor [2], 4.6 nM; on Glucocorticoid receptor [3] it was 1880 nM.

As to `O=C(O)Cc1cc(Br)c(N(Cc2ccc(Oc3ccccc3F)cc2)Cc2cc(F)cc(F)c2)c(Br)c1`, the 50% inhibitory concentration (IC50) stood at 46 nM at Glucocorticoid receptor [1], 145 nM at Glucocorticoid receptor [2] and 2100 nM on Glucocorticoid receptor [3].

Take `Cc1ccccc1Oc1ccc(CN(Cc2cc(F)cc(F)c2)c2c(Br)cc(CC(=O)O)cc2Br)cc1`: the IC50 on Glucocorticoid receptor [2] was 1280 nM.

Regarding `O=C(O)Cc1cc(Br)c(N(Cc2ccc(Oc3ccc(Cl)cc3Cl)cc2)Cc2cc(F)cc(F)c2)c(Br)c1`, the IC50 was found to be 391 nM at Glucocorticoid receptor [1], 96 nM on Glucocorticoid receptor [2] and 2600 nM on Glucocorticoid receptor [3].

Compound `COc1ccccc1Oc1ccc(CN(Cc2cc(F)cc(F)c2)c2c(Br)cc(CC(=O)O)cc2Br)cc1` registered an IC50 on Glucocorticoid receptor [2] of 1260 nM.

As to `O=C(O)Cc1cc(Br)c(N(Cc2ccccc2)Cc2ccc(Oc3ccccc3)cc2)c(Br)c1`, at Glucocorticoid receptor [2], the IC50 came out at 1200 nM.

At Glucocorticoid receptor [2], `O=C(O)Cc1cc(Br)c(N(Cc2ccc(Oc3ccccc3)cc2)Cc2cccc(F)c2)c(Br)c1` registered an IC50 of 820 nM.

For `O=C(O)Cc1cc(Br)c(N(Cc2ccc(Oc3ccccc3Cl)cc2)Cc2cc(F)cc(F)c2)c(Br)c1`, the IC50 was 512 nM at Glucocorticoid receptor [1], 235 nM on Glucocorticoid receptor [2] and 3000 nM on Glucocorticoid receptor [3].
